Common to all, as to experiment: ≥ marks a high value that may be exact or a test limit, other limits are often not marked, values filed in µg/mL are converted to µM
Test [1] concerns Escherichia coli ATCC 25922.
Test [2] concerns Staphylococcus aureus ATCC 25923.
For test [3], the system named is Pseudomonas aeruginosa ATCC 27853.
Test [4] has as its system Escherichia coli.

In brackets after ≈: the same amount, converted by molar mass.

Take `CC[C@H](C)[C@H](NC(=O)[C@H](CCCN=C(N)N)NC(=O)[C@@H](NC(=O)[C@H](CC(C)C)NC(=O)[C@H](CC(C)C)NC(=O)CN)[C@@H](C)O)C(=O)N[C@@H](CCCCN)C(=O)N[C@H](C(=O)N[C@@H](CC(C)C)C(=O)N[C@@H](CC(C)C)C(N)=O)[C@@H](C)O` [GLLTRIKTLL]: the MIC (commonly the lowest concentration found to suppress growth) in test [1] was determined as 200 µM (≈ 225 µg/mL).
As to `C[C@H](NC(=O)[C@H](C)NC(=O)[C@H](CCCCN)NC(=O)[C@H](CCCCN)NC(=O)[C@H](C)NC(=O)[C@H](C)NC(=O)[C@H](CCCCN)NC(=O)[C@H](C)NC(=O)[C@H](C)NC(=O)[C@H](CCCCN)NC(=O)[C@H](CCCCN)NC(=O)[C@H](C)NC(=O)[C@H](C)NC(=O)[C@@H](N)CCCCN)C(N)=O` [KAAKKAAKAAKKAA], the MIC in test [1] is 47 µM (≈ 63.7 µg/mL); in test [2], greater than 256 µM.
Take `CC(C)C[C@H](NC(=O)[C@H](CCCCN)NC(=O)CNC(=O)[C@H](CC(C)C)NC(=O)[C@H](CCCCN)NC(=O)[C@H](CCCCN)NC(=O)CNC(=O)[C@H](CC(C)C)NC(=O)[C@H](CCCCN)NC(=O)CNC(=O)[C@H](CC(C)C)NC(=O)[C@H](CCCCN)NC(=O)[C@H](CCCCN)NC(=O)CNC(=O)[C@H](CC(C)C)NC(=O)[C@@H](N)CCCCN)C(=O)NCC(=O)N[C@@H](CCCCN)C(=O)N[C@@H](CCCCN)C(=O)N[C@@H](CC(C)C)C(=O)NCC(N)=O` [KLGKKLGKLGKKLGKLGKKLG]: the MIC in test [1], in test [3] and in test [2] was 4 µM (≈ 8.77 µg/mL) in each case.
On to `CC[C@H](C)[C@H](NC(=O)[C@H](CC(=O)O)NC(=O)[C@@H](NC(=O)[C@@H](NC(=O)CN)C(C)C)C(C)C)C(=O)N[C@@H](CC(C)C)C(=O)N[C@@H](CCCCN)C(=O)NCC(=O)N[C@@H](C)C(=O)N[C@@H](C)C(=O)N[C@@H](CCCCN)C(=O)N[C@@H](CC(=O)O)C(=O)N[C@@H](CC(C)C)C(=O)N[C@@H](C)C(=O)NCC(=O)N[C@@H](Cc1cnc[nH]1)C(=O)O` [GVVDILKGAAKDLAGH], for which the MIC came to 79.9 µM (≈ 125 µg/mL) in test [1] and 20 µM (≈ 31.3 µg/mL) in test [2].
For the molecule `NC(=O)[C@H](CCCN=C(N)N)NC(=O)[C@H](Cc1c[nH]c2ccccc12)NC(=O)[C@H](Cc1ccc(O)cc1)NC(=O)[C@H](CCCN=C(N)N)NC(=O)[C@H](Cc1c[nH]c2ccccc12)NC(=O)[C@H](Cc1c[nH]c2ccccc12)NC(=O)[C@@H](N)CCCN=C(N)N` [RWWRYWR], the minimal inhibitory concentration (MIC) in test [1] is 8.28 µM (≈ 9.99 µg/mL); in test [3], 16.6 µM (≈ 20 µg/mL); in test [2], 2.07 µM (≈ 2.5 µg/mL).
On to `CSCC[C@H](NC(=O)[C@H](CCCN=C(N)N)NC(=O)[C@H](Cc1c[nH]c2ccccc12)NC(=O)[C@H](C)NC(=O)[C@H](Cc1c[nH]c2ccccc12)NC(=O)[C@H](CCCN=C(N)N)NC(=O)[C@H](CCCN=C(N)N)NC(=O)[C@H](C)NC(=O)[C@H](CCCCN)NC(=O)[C@H](Cc1ccccc1)NC(=O)[C@H](Cc1c[nH]c2ccccc12)NC(=O)[C@H](C)NC(=O)[C@@H]1CCCN1)C(=O)N[C@@H](CC(C)C)C(=O)N[C@@H](CCCCN)C(=O)N[C@@H](CCCCN)C(=O)N[C@@H](C)C(=O)N[C@@H](C)C(=O)O` [PAWFKARRWAWRMLKKAA], for which the MIC came to 4.4 µM (≈ 10 µg/mL) in test [1] and 2.2 µM (≈ 5 µg/mL) in test [2].
`CC[C@H](C)[C@H](NC(=O)[C@H](Cc1c[nH]c2ccccc12)NC(=O)[C@H](CCCCN)NC(=O)[C@@H]1CCCN1C(=O)[C@H](CC(C)C)NC(=O)[C@@H](N)CCCCN)C(=O)N[C@H](C(=O)N[C@@H](CCCCN)C(=O)N[C@H](C(=O)N[C@H](C(=O)N[C@@H](CC(N)=O)C(=O)N[C@@H](CCCCN)C(=O)N[C@@H](Cc1ccccc1)C(=O)N[C@H](C(=O)N[C@@H](CCCCN)C(=O)N[C@@H](CCCCN)C(=O)O)[C@@H](C)O)C(C)C)[C@@H](C)O)[C@@H](C)CC` [KLPKWIIKTVNKFTKK] returned a minimal inhibitory concentration (MIC) in test [4] of 3.3 µM (≈ 6.51 µg/mL).
As to `CC[C@H](C)[C@H](NC(=O)CN)C(=O)NCC(=O)N[C@@H](CCCCN)C(=O)N[C@@H](Cc1ccccc1)C(=O)N[C@@H](CC(C)C)C(=O)N[C@@H](Cc1cnc[nH]1)C(=O)N[C@@H](CO)C(=O)N[C@@H](C)C(=O)N[C@@H](CCCCN)C(=O)N[C@@H](CCCCN)C(=O)N[C@@H](Cc1ccccc1)C(=O)NCC(=O)N[C@@H](CCCCN)C(=O)N[C@@H](C)C(=O)N[C@@H](Cc1ccccc1)C(=O)N[C@H](C(=O)NCC(=O)N[C@@H](CCC(=O)O)C(=O)N[C@H](C(=O)N[C@@H](CCSC)C(=O)N[C@@H](CC(N)=O)C(=O)N[C@@H](CO)C(=O)NCC(=O)NCC(=O)N[C@@H](CS)C(N)=O)[C@@H](C)CC)C(C)C` [GIGKFLHSAKKFGKAFVGEIMNSGGC], the MIC in test [1] worked out at 3.1 µM (≈ 8.32 µg/mL).
Same read-out and setting: in the case of `CC[C@H](C)[C@H](NC(=O)CN)C(=O)N[C@@H](CCSC)C(=O)N[C@@H](CC(=O)O)C(=O)N[C@@H](CO)C(=O)N[C@H](C(=O)N[C@@H](CCCCN)C(=O)N[C@@H](CC(N)=O)C(=O)N[C@H](C(=O)N[C@@H](C)C(=O)N[C@@H](CCCCN)C(=O)N[C@@H](CC(N)=O)C(=O)N[C@H](C(=O)N[C@@H](C)C(=O)NCC(=O)N[C@@H](CCC(N)=O)C(=O)N[C@@H](CC(C)C)C(=O)N[C@@H](CC(C)C)C(=O)N[C@@H](CC(=O)O)C(=O)N[C@@H](CCCCN)C(=O)N[C@@H](CC(C)C)C(=O)N[C@@H](CCCCN)C(=O)N[C@H]1CSSC[C@@H](C(=O)O)NC(=O)CNC(=O)[C@H]([C@@H](C)O)NC(=O)[C@H]([C@@H](C)CC)NC(=O)[C@H](CCCCN)NC1=O)[C@@H](C)CC)C(C)C)C(C)C` [GIMDSVKNVAKNIAGQLLDKLKCKITGC] it was 16 µM (≈ 47.4 µg/mL).
The same measure, in the same setting: the same measure for `CC(C)C[C@H](NC(=O)[C@H](CCC(N)=O)NC(=O)[C@H](CCCCN)NC(=O)[C@H](CCCN=C(N)N)NC(=O)[C@H](Cc1ccccc1)NC(=O)[C@H](C)N)C(=O)N[C@@H](CCCCN)C(=O)N[C@@H](Cc1c[nH]c2ccccc12)C(=O)O` [AFRKQLKW]: 3.72 µM (≈ 4 µg/mL).
For `CSCC[C@H](NC(=O)[C@H](CCCN=C(N)N)NC(=O)[C@H](Cc1c[nH]c2ccccc12)NC(=O)[C@H](C)NC(=O)[C@H](Cc1c[nH]c2ccccc12)NC(=O)[C@H](CCCN=C(N)N)NC(=O)[C@H](CCCN=C(N)N)NC(=O)[C@H](C)NC(=O)[C@H](CCCCN)NC(=O)[C@@H](N)Cc1ccc(O)cc1)C(=O)N[C@@H](CCCCN)C(=O)O` [YKARRWAWRMK], the MIC in test [1] is 32.2 µM (≈ 50 µg/mL); in test [3], 129 µM (≈ 200 µg/mL); in test [2], 32.2 µM (≈ 50 µg/mL).
Regarding `CC(C)C[C@H](NC(=O)CN)C(=O)N[C@@H](CC(C)C)C(=O)N[C@@H](CCCCN)C(=O)N[C@@H](CCCN=C(N)N)C(N)=O` [GLLKR], the MIC in test [1] and in test [2] was greater than 52.9 µM in each case.
With `CSCC[C@H](NC(=O)[C@H](CCCCN)NC(=O)[C@H](CCCCN)NC(=O)[C@H](CCCCN)NC(=O)[C@H](CCCN=C(N)N)NC(=O)[C@H](CCCN=C(N)N)NC(=O)[C@H](Cc1ccc(O)cc1)NC(=O)[C@@H](N)CCCN=C(N)N)C(=O)N[C@@H](CCCCN)C(=O)N[C@@H](CCCCN)C(=O)N[C@@H](C)C(=O)N[C@@H](CC(C)C)C(=O)N[C@@H](CCC(N)=O)C(=O)N[C@@H](Cc1ccc(O)cc1)C(N)=O` [RYRRKKKMKKALQY], the MIC in test [1] and in test [3] was greater than 100 µM in each case.
With `CC[C@H](C)[C@H](NC(=O)[C@H](CCCCN)NC(=O)[C@@H](N)Cc1ccccc1)C(=O)N[C@@H](CCCCN)C(=O)N[C@@H](C)C(=O)N[C@@H](CO)C(=O)N[C@@H](CCCCN)C(=O)N[C@@H](CCCCN)C(=O)N[C@@H](CC(C)C)C(=O)N[C@@H](CC(C)C)C(=O)N[C@@H](CCCCN)C(=O)N[C@@H](CCCCN)C(=O)N[C@H](C(=O)NCC(=O)N[C@@H](CCCCN)C(=O)NCC(=O)N[C@@H](C)C(=O)N[C@@H](CC(C)C)C(=O)NCC(=O)N[C@@H](C)C(=O)N[C@H](C(=O)N[C@@H](C)C(=O)N[C@@H](CCCCN)C(=O)N[C@@H](C)C(=O)N[C@@H](CC(C)C)C(=O)N[C@@H](C)C(=O)N[C@@H](CCC(N)=O)C(=O)N[C@@H](CCC(N)=O)C(=O)N[C@@H](C)C(=O)O)C(C)C)C(C)C` [FKIKASKKLLKKVGKGALGAVAKALAQQA], the MIC in test [3] came to 0.5 µM (≈ 1.48 µg/mL).
The molecule `CC[C@H](C)[C@H](NC(=O)[C@H](CO)NC(=O)[C@H](Cc1ccccc1)NC(=O)[C@H](CC(C)C)NC(=O)[C@H](C)N)C(=O)N[C@@H](CC(C)C)C(=O)N[C@@H](CCCN=C(N)N)C(=O)NCC(=O)N[C@@H](CC(C)C)C(=O)N[C@@H](CCCCN)C(=O)N[C@@H](CCCCN)C(=O)N[C@@H](CC(C)C)C(=O)NCC(=O)N[C@@H](CC(N)=O)C(=O)N[C@@H](CCSC)C(=O)NCC(=O)N[C@@H](CCC(N)=O)C(=O)N[C@@H](C)C(=O)N[C@@H](Cc1ccccc1)C(=O)N[C@H](C(=O)N[C@@H](CC(N)=O)C(=O)N[C@H]1CSSC[C@@H](C(=O)O)NC(=O)[C@H](CCCCN)NC(=O)[C@H](CCCCN)NC(=O)[C@H](Cc2ccc(O)cc2)NC(=O)[C@H]([C@@H](C)CC)NC(=O)[C@H](CCCCN)NC1=O)C(C)C` [ALFSILRGLKKLGNMGQAFVNCKIYKKC] showed an MIC in test [1] of 8 µM (≈ 25.1 µg/mL).
On the same count and under the same terms, the same measure for `CC(C)C[C@H](NC(=O)[C@H](Cc1ccccc1)NC(=O)[C@@H]1CCCN1C(=O)[C@H](Cc1c[nH]c2ccccc12)NC(=O)[C@H](C)NC(=O)[C@H](C)NC(=O)[C@@H]1CCCN1C(=O)[C@H](Cc1ccccc1)NC(=O)[C@H](CCCN=C(N)N)NC(=O)[C@H](CCCN=C(N)N)NC(=O)[C@@H](N)C(C)C)C(=O)N[C@@H](CCCN=C(N)N)C(=O)N[C@@H](CCCN=C(N)N)C(N)=O` [VRRFPAAWPFLRR]: 90.5 µM (≈ 151 µg/mL).
For `CC(C)C[C@H](NC(=O)[C@H](CCCCN)NC(=O)[C@H](CCCCN)NC(=O)[C@H](C)NC(=O)[C@H](CC(C)C)NC(=O)[C@@H](N)CCCCN)C(=O)N[C@@H](C)C(N)=O` [KLAKKLA], the MIC in test [1], in test [3] and in test [2] was greater than 100 µM in each case.
